Test results published in patent publication US20030096264A1, “Multi-parameter high throughput screening assays (MPHTS)” (Psychiatric Genomics, Inc., priority 2001, published 2003).

System: stem cells isolated from rat cortex, differentiated with CNTF (astrocyte cultures)
Assay: Expression profile of CNTF-differentiated rat cortex stem cells treated with VIP
Type: cell-based
Conditions: 5 μM VIP, one day
Protocol: VIP signature genes. Similar experiments were also performed in which cells were treated with vasoactive intestinal polypeptide (VIP), another drug useful for treating neuropsychiatric disorders. In more detail, stem cells were isolated and propagated from rat cortex. At passage 1, they were treated with 10 ng/ml ciliary neurotrophic factor (CNTF, available from R&D Systems, MN) for four days. 10 ng/ml of basic fibroblast growht factor (bFGF, R&D Systems, MN) was present in the medium on the first day of the differentiation regiment. […] Cells were then treated with 5 μM VIP (Sigma) for one day and harvested for expression profiling.
Signature genes were identified that changed expression when contacted with VIP compared to untreated cells. Each of these genes is listed below in Table 4, along with the measured expression ratio (ρ) and the GenBank Accession number for an exemplary cDNA sequence. The exemplary cDNA sequence for each gene is also provided here in the accompanying sequence listing. Accordingly, an appropriate sequence identifier is also specified in Table 4 for each listed gene.

What does the source list for vasoactive intestinal polypeptide [VIP]?
expression ratio σ: Cdk-inhibitor p57Kip2 (vs untreated, U22399 SEQ ID NO: 163): −1.8; expression ratio σ: Rat EGF like protein (AF112153 SEQ ID NO: 164): 3.8; expression ratio σ: Rat Interferon inducdible protein 16 (AF164040 SEQ ID NO: 168): 1.8; expression ratio σ: similar to erythrocyte protein band 7.2 (BC003789 SEQ ID NO: 166): 2.2; expression ratio σ: rat Dahl salt resistant strain clone etb (U02094 SEQ ID NO: 169): 1.8; expression ratio σ: Rat tyrosine phosphatase like protein IA-2a (U40682 SEQ ID NO: 167): 2.0; expression ratio σ: Rat interferon induced mRNA (X61381 SEQ ID NO: 165): 2.3
